Settings in all cases: Cricetulus griseus
Data set [1] has as its target Multifunctional protein CAD (Homo sapiens) (UniProt P27708). The data set can be described thus: Inhibitory activity against Dihydroorotase (DHO); no reproducible apparent Ki data.
The target is the same in data set [2]. The data set can be described thus: Inhibitory activity against Dihydroorotase (DHO) using CAD protein at concentrations >=6 mM; no inhibition was observed.
The next data set relates to NC(=O)NC(CC(=O)O)C(=O)O. In words: Kinetic constant for the inactivation of Dihydroorotase (DHO) at pH 6.0.
The next data set has as its system NC(=O)NC(CCS)C(=O)O. In words: Kinetic constant for the inactivation against Dihydroorotase (DHO) at a concentration of 3 uM.

Chain of Multifunctional protein CAD (Homo sapiens) (P27708 whole entry): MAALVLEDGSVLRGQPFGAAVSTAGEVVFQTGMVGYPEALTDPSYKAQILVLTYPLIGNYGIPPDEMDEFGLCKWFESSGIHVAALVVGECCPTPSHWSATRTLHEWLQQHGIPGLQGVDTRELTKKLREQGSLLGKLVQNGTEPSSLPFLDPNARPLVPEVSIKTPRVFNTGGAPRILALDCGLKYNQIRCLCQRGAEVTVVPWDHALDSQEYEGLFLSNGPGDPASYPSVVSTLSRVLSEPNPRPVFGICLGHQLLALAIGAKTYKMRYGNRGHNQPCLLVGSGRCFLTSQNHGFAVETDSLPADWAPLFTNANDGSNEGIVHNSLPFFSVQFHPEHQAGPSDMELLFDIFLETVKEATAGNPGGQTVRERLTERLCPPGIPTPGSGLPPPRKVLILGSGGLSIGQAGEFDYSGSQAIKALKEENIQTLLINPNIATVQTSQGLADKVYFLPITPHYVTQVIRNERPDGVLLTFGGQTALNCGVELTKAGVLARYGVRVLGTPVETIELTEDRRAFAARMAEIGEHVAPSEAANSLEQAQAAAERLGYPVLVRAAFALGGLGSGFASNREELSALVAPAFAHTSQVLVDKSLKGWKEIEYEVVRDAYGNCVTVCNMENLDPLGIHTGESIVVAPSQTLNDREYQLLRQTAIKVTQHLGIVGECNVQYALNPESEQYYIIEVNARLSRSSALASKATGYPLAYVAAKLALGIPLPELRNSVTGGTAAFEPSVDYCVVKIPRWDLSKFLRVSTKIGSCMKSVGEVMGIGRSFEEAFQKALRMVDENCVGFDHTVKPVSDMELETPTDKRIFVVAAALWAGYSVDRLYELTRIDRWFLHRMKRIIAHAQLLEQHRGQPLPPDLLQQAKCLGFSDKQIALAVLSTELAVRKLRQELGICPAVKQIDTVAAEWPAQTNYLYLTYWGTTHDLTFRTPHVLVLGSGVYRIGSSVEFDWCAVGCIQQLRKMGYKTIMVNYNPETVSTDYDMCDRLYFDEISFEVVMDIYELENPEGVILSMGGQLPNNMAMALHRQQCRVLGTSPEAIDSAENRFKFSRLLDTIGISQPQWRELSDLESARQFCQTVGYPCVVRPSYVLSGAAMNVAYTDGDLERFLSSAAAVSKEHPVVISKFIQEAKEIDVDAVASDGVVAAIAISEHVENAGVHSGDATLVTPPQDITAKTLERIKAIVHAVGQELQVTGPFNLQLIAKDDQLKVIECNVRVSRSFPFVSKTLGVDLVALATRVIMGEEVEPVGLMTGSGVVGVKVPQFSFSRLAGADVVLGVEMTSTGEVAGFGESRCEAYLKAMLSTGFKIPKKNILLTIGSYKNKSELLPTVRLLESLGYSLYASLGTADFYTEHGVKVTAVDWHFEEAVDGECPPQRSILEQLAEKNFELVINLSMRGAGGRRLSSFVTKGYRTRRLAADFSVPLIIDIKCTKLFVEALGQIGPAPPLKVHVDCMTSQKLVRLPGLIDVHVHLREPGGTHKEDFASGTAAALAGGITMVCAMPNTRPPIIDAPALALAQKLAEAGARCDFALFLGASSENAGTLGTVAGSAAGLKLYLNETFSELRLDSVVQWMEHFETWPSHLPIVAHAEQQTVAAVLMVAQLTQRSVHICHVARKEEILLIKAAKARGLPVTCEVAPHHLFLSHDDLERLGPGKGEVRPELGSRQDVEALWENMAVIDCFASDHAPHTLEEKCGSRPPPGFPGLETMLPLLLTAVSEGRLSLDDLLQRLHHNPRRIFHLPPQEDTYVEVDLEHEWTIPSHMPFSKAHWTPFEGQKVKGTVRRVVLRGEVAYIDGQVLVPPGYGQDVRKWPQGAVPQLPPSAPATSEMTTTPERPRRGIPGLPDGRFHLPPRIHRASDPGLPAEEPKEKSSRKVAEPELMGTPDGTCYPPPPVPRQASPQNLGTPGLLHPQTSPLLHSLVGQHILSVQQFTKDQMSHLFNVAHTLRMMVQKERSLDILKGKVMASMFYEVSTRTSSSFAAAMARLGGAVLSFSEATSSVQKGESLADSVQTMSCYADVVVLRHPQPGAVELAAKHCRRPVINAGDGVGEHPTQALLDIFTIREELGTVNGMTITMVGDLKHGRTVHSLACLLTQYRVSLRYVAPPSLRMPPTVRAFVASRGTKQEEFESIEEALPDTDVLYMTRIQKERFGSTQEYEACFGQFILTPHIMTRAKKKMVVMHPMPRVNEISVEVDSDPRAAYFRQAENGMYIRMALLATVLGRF

With `COC(=O)C(CB(O)O)NC(N)=O` (centres undefined), the inhibition result in data set [1] was “no reproducible apparent Ki data”.

Turning to `NC(=O)NC(CB(O)O)C(=O)O` (centres undefined), the inhibition entry in data set [2] was “No inhibition”.

Turning to “Multifunctional protein CAD (Homo sapiens), P27708”, the Km in the data set on NC(=O)NC(CC(=O)O)C(=O)O is 50 µM. Besides, in the data set on NC(=O)NC(CCS)C(=O)O, the kinact is 460000 min⁻¹.
